Data published in patent publication US9980976B2, “Use of REDD1 inhibitors to dissociate therapeutic and adverse atrophogenic effects of glucocorticoid receptor agonists” (Northwestern University, priority 2015, dated 2018).

Key:
mouse skin = test: Glucocorticoid-induced skin atrophy in mice (morphometric analysis of dorsal skin); assay type: in vivo
Method: Seven-week-old females in the telogen stage of the hair cycle were shaved and treated 3 days later. Glucocorticoid FA was applied topically (2 μg/animal) in 200 μl acetone to the back skin once or up to four times every third day as described (Chebotaev et al, 2007c). Control animals were treated with acetone only. Animals were injected i.p. with bromodeoxyuridine (BrdU, Sigma-Aldrich, 50 μg/g of animal weight) 1 h before skin was harvested. Epidermis and s.c. fat were isolated from the murine dorsal skin mechanically by scraping (Chebotaev et al, 2007c). […] Quantification of the epidermal width and number of basal keratinocytes (as the readouts for skin atrophy and hypoplasia of raft epidermis) was performed in dorsal skin and ORC sections stained with H&E. The number of dermal cells was determined on sections stained with Masson's trichrome in the upper (papillary) dermis that is distinguishable from the lower (reticular) dermis ([…] et al, 2013). At least 10 individual fields per slide with at least three samples in each experimental group were counted using Axioplan2 microscope software (Carl Zeiss). All measurements are presented as % to corresponding control.

REDD1 = REDD1 expression in mouse epidermis and s.c. adipose (Q-PCR, Western blot, immunostaining); assay type: in vivo
Method: FIG. 16. […] F1 C57B1×129 mice were treated topically with solvent (control), FA ((2 μg/mouse×8 hrs) or pretreated with Rapamycin (500 nmol/mouse×6 hrs) followed by FA treatment for 8 h. RNA and whole cell proteins were extracted from epidermis isolated as described in Matherials and Methods. A. Q-PCR analysis of REDD1 expression. The results were normalized to the expression of the housekeeping Rp127 gene, and presented as fold of change compared to control animals. The means+/−SD calculated for three individual RNA samples/condition. a—Statistically significant difference (P<0.05) compared to control; b—Statistically significant differences (P<0.05) compared to FA treatment. B. Western blot analysis of whole cell proteins in epidermis. Membranes were probed with anti-GAPDH antibodies to verify equal protein loading and transfer. C. Ear edema test. Ear edema was induced by croton oil (CO, 20 ul/ear) as in Materials and Methods. Solvent (20 ul/ear) or FA (1 ug/ear) were applied 1 h before CO after 6 hrs of pre-treatment with rapamycin (200 ng/ear) or solvent. Mice were sacrificed and four-millimeter ear punches were weighed 9 h after CO application to assess swelling. Ear punch weight results are presented as % to control (only solvent treatment) ear weight The means+/−SD were calculated for six individual ear punches/condition in one representative experiment (out of three experiments). a—Statistically significant differences (P<0.05) compared to control treatment; b—Statistically significant differences (P<0.05) compared to CO or CO+rapa treatment.
Seven-week-old females in the telogen stage of the hair cycle were shaved and treated 3 days later. Glucocorticoid FA was applied topically (2 μg/animal) in 200 μl acetone to the back skin once or up to four times every third day as described (Chebotaev et al, 2007c). Control animals were treated with acetone only. Animals were injected i.p. with bromodeoxyuridine (BrdU, Sigma-Aldrich, 50 μg/g of animal weight) 1 h before skin was harvested. Epidermis and s.c. fat were isolated from the murine dorsal skin mechanically by scraping (Chebotaev et al, 2007c).
Sections of formalin-fixed, paraffin-embedded skin and ORCs were stained with hematoxylin and eosin (H&E), Masson's trichrome to evaluate the effect on dermis and collagen fibers (Sheehan & Hrapchack, 1980), and with antibodies against BrdU (BD Biosciences, San Jose, Calif., USA), keratins 1, 5, and 10, loricrin (Covance, Princeton, N.J.), phospho-mTORSer2448 (Cell Signaling Technology, Inc., Danvers, Mass., USA), REDD1 (Proteintech Group, Inc, Chicago, Ill.), p63 (eBioscience, San Diego, Calif., USA), and CD34 (Abcam, Cambridge, Mass., USA). […]

[1] = test system: CD34+ follicular SCs and p63-positive progenitors; test: CD34+ follicular epithelial stem cells and p63+ progenitors in mouse skin (immunostaining); assay type: in vivo; conditions: chronic FA treatment
From the text: Sections of formalin-fixed, paraffin-embedded skin and ORCs were stained with hematoxylin and eosin (H&E), Masson's trichrome to evaluate the effect on dermis and collagen fibers (Sheehan & Hrapchack, 1980), and with antibodies against BrdU (BD Biosciences, San Jose, Calif., USA), keratins 1, 5, and 10, loricrin (Covance, Princeton, N.J.), phospho-mTORSer2448 (Cell Signaling Technology, Inc., Danvers, Mass., USA), REDD1 (Proteintech Group, Inc, Chicago, Ill.), p63 (eBioscience, San Diego, Calif., USA), and CD34 (Abcam, Cambridge, Mass., USA).
The numbers of BrdU+, p63+, and total number of basal keratinocytes were evaluated in 10 fields of view in each skin/ORC sample under the microscope. Number of BrdU+ and p63+ cells is presented as percent of total number of basal keratinocytes. The number of CD34+ hair follicles among 10 randomly selected hair follicles per skin sample was evaluated under the microscope.

GR = GR phosphorylation at Ser211 (Western blot) in HaCaT and CEM cells; assay type: cell-based, human; conditions: 1 uM FA
Method: FIG. 15. Rapamycin inhibits GR nuclear translocation and phosphorylation. A. GR nuclear translocation in HaCaT cells was determined by immunofluorescence as described in Materials and Methods. Cells on coverslips were pretreated with solvent (Control) or Rapamycin (1 uM×6 h) and treated with 1 uM FA for indicated time. B. GR nuclear translocation in CEM cells was determined by Western blot analysis of nuclear protein extracts. Membranes were probed with anti-HDAC-1 antibodies to verify equal protein loading and transfer. C, D. GR phosphorylation in HaCaT (C) and CEM (D) cells was determined by Western blot analysis of whole cell lysates. Membranes were probed with anti-GAPDH antibodies to verify equal protein loading and transfer.
The whole-cell protein extracts were prepared using RIPA buffer with protease and phosphatase inhibitor cocktails (Thermo Scientific, Thermo Fisher Scientific Inc., Waltham, Mass., USA), resolved by SDS-PAGE on 4-20% gels and transferred to Odyssey nitrocellulose membranes (LI-COR Biosciences, Lincoln, Neb., USA). Membranes were blocked with Odyssey Blocking Buffer and incubated with primary antibodies overnight at 4° C., followed by IRDye® secondary antibodies (LI-COR Biosciences). LI-COR Odyssey Imager was used for the band visualization. […]

[2] = B6D2 mice, FA 2 μg/animal topically every 72 h, 2-week treatment

**Q.** Which “depletion of the interfollicular basal keratinocytes” value (mouse skin; [2]) does the source give for `CC1(C)O[C@@H]2C[C@H]3[C@@H]4C[C@H](F)C5=CC(=O)C=C[C@]5(C)[C@@]4(F)[C@@H](O)C[C@]3(C)[C@]2(C(=O)CO)O1` [FA, fluocinolone acetonide] here?
**A.** 50%

**Q.** What about the epidermal thinning (mouse skin; [2]) of the same compound?
**A.** 50%

**Q.** What about the “depletion of s.c. adipose tissue” value (mouse skin; B6D2 mice, chronic FA treatment) of the same compound?
**A.** complete depletion

**Q.** What about the “reduction of epidermal thickness” value (mouse skin; B6×129 mice, FA 2 ug/animal every 72 h for 2 weeks, with or without rapamycin 500 ug/animal×5 hrs pretreatment) of the same compound?
**A.** 50%

**Q.** What about the skin atrophy (mouse skin; F1 C57B1×129 mice, topical FA, 2 wk treatment) of the same compound?
**A.** severe skin atrophy

**Q.** What about the “reduction of epidermal thickness” value (mouse skin; REDD1 KO mice, chronic FA 2 μg/animal every 72 h for 2 weeks) of the same compound?
**A.** < 20%

**Q.** What about the “number of dermal fibroblasts” value (mouse skin; w.t. B6×129 mice treated with FA×2 wk, Masson's trichrome) of the same compound?
**A.** strongly decreased

**Q.** And the “reduction of epidermal thickness” value (mouse skin; wild-type B6×129 mice, chronic FA 2 μg/animal every 72 h for 2 weeks)?
**A.** 50%

**Q.** And the “REDD1 expression in s.c. adipose versus epidermis” value (REDD1; B6D2 mice, 24 h after FA, Q-PCR)?
**A.** equally activated in s.c. adipose and epidermis

**Q.** What about the “REDD1 expression in skin” value (REDD1; F1 C57B1×129 mice, topical FA 2 ug/animal×24 h) of the same compound?
**A.** strongly induced

**Q.** And the “REDD1 mRNA increase” value (REDD1; epidermis of B6D2 mice, 4-24 h after the first FA application, Q-PCR)?
**A.** ~4.5 fold

**Q.** And the REDD1 protein expression (REDD1; skin of B6D2 mice, Western blot and immunostaining, single and chronic FA)?
**A.** induced REDD1 expression as early as 4-8 h after first application

**Q.** And the “decrease in number of p63+ basal keratinocytes” value ([1]; REDD1 KO mice)?
**A.** 20%

**Q.** What about the “hair follicles CD34 positive” value ([1]; REDD1 KO mice) of the same compound?
**A.** 40%

**Q.** What about the “decrease in number of p63-positive progenitors in the basal layer of epidermis” value ([1]; wild-type mice) of the same compound?
**A.** ~40%

**Q.** And the “hair follicles CD34 positive” value ([1]; wild-type mice)?
**A.** 5%

**Q.** What about the “GR phosphorylation at Ser211” value (GR) of the same compound?
**A.** induced quick GR phosphorylation
